{"source": "patent US20220142925A1", "about": "“NON-STEROIDAL ANTI-INFLAMMATORY LYOPHILIZED PHARMACEUTICAL COMPOSITION” (EUROFARMA LABORATÓRIOS S.A., priority 2019, published 2022)", "key": {"[1]": {"details": "cited from earlier work"}, "[2]": {"details": "cited from earlier work; for solubility (in words): aqueous; for solubility: 20° C."}, "[3]": {"assay": "Forced degradation study (formation of valdecoxib)", "assay_type": "physicochemical", "details": "oxidative, basic, acidic conditions"}, "[4]": {"molecular_target": "cyclooxygenase 1 (COX-1) (Homo sapiens, UniProt P23219)", "sequence (P23219 24-599)": "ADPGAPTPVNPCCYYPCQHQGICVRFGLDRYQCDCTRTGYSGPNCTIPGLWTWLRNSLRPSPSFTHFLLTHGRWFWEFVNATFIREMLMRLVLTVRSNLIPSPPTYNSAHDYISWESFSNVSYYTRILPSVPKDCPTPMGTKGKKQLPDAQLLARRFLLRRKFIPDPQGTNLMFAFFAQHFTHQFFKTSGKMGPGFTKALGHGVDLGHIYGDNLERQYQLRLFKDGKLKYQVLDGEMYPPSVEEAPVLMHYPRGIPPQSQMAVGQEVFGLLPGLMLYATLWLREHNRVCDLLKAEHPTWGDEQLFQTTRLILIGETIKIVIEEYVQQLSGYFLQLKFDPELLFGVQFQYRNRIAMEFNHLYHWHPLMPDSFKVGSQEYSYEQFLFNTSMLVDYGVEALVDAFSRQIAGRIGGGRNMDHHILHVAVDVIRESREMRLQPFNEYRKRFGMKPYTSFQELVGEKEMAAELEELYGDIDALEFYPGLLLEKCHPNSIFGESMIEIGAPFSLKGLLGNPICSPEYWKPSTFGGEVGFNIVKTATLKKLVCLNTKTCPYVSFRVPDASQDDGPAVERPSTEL", "details": "therapeutic plasma concentrations in humans; cited from earlier work"}}, "note": "Like-named read-outs stand apart in the source and are kept apart here.", "data": [{"smiles": "CCC(=O)NS(=O)(=O)c1ccc(-c2c(-c3ccccc3)noc2C)cc1", "note": "[Parecoxib, parecoxib]", "values": [{"measurement": "pH of 1% parecoxib in water", "setting": "[1]; 1% in water at 25° C.", "result": "about 7.80"}, {"measurement": "dissociation constant, pKa", "setting": "[1]", "result": 6.07}, {"measurement": "solubility in methylene hydrochloride", "setting": "[2]; methylene chloride", "result": "insoluble"}, {"measurement": "solubility in tetrahydrofuran", "setting": "[2]; tetrahydrofuran", "result": "slightly soluble"}, {"measurement": "solubility in water", "setting": "[2]; water", "result": "very soluble"}]}, {"smiles": "CCC(=O)NS(=O)(=O)c1ccc(-c2c(-c3ccccc3)noc2C)cc1", "note": "[acidic form of parecoxib]", "values": [{"measurement": "solubility (in words)", "setting": "[2]", "result": "low solubility"}]}, {"smiles": "CCC(=O)NS(=O)(=O)c1ccc(-c2c(-c3ccccc3)noc2C)cc1.[Na+]", "note": "[parecoxib sodium, N-[[4-(5-methyl-3-phenyl-4-isoxazolyl)phenyl]sulfonyl]propanamide sodium salt]", "values": [{"measurement": "sensitivity in forced degradation in relation to the formation of valdecoxib", "setting": "[3]", "result": "sensitive to oxidative, basic, and acidic conditions"}, {"measurement": "solubility", "setting": "[2]; pH 7.8", "result": 18, "unit": "mg/mL"}, {"measurement": "solubility", "setting": "[2]; pH 8.3", "result": 220, "unit": "mg/mL"}, {"measurement": "solubility (in words)", "setting": "[2]", "result": "highly soluble"}]}, {"smiles": "Cc1onc(-c2ccccc2)c1-c1ccc(S(N)(=O)=O)cc1", "note": "[valdecoxib]", "values": [{"measurement": "solubility (in words)", "setting": "[2]", "result": "low"}, {"measurement": "inhibition of cyclooxygenase 1 (COX-1)", "setting": "[4]", "result": "does not inhibit"}]}]}
